This is an account of results in the supplement of paper PMC6723410.

In the first assay the test system is GUMC-403. Kind of assay: viability at highest tested concentration (max response) relative to DMSO (% of DMSO control); higher = less cytotoxic. The following applies: library / dose series: MIPE library, 11-point 1:3 dilution; top concentration 23 µM; 48 h. Put shortly:
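This value is viability at the highest tested concentration relative to vehicle control. GUMC-403 papilloma cells from a patient, grown by conditional reprogramming, were plated at 700/well in 1536-well plates and given 23 nL of compound by pin tool for 48 h. CellTiter-Glo luminescence on a ViewLux was normalised with vehicle wells at 100% and empty wells at 0%.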
Compound `NC/1=N/C(=O)N(C[C@@H](CO)OC[P](O)(O)=O)/C=C1` registered a viability of 104.

Staying with this assay, now noted: library / dose series: MIPE library, 11-point 1:3 dilution; top concentration 46.1 µM; 48 h.
Compound `c1cc(OCCN2CCCCC2)cc(-c2n[nH]c3ccc(-c4nc[nH]n4)cc23)c1` came in with a viability of 111.

As to `NC(CO)C(=O)NNCc1ccc(O)c(O)c1O` (configuration not stated), the viability came out at 96.3.

`COc1cc2c(N3CCN(C(=O)Nc4ccc(OC(C)C)cc4)CC3)ncnc2cc1OCCCN1CCCCC1` displayed a viability of 109.

The compound `COC1=CC=C2[N](CCCN(C)C)C=C(C2=C1)C/3=C(/C(=O)NC3=O)C4=C[NH]C5=C4C=CC=C5` displayed a viability of 102.

Consider `COc1cc(C(=O)NS(=O)(=O)c2ccccc2C)ccc1Cc1cn(C)c2ccc(NC(=O)OC3CCCC3)cc12`, for which the viability is 28.5.

Regarding `CNC1CCCN(c2c(F)cc3c(=O)c(C(=O)O)cn(C4CC4)c3c2OC)C1` (configuration not stated), the viability came out at 121.

`O=C(O)c1ccc(O)c2ncc(N3CCOCC3)cc12` registered a viability of 96.

Regarding `O=C(C1CC1)N1CC[C@@H](Cn2c(-c3ccc(-c4ccc5occc5c4)cc3)nc3cnccc32)C1`, the viability stood at 124.

Take `Nc1ccc(C(=O)c2cc3c(ccc4ccccc43)[nH]2)cc1`: the viability came out at 109.

The compound `COc1ccnc(C[S+]([O-])c2nc3cc(OC(F)F)ccc3[nH]2)c1OC` (configuration not stated) had a viability of 98.7.

In turn, `NC(=O)c1cccnc1` showed a viability of 136.

Turning to `NC(=O)c1cccc2cn(-c3ccc([C@@H]4CCCNC4)cc3)nc12`, the viability worked out at 98.4.

The compound `O=C(Nc1cccc(Cl)c1)Nc1ncc(CCNc2ncnc3ccsc23)s1` gave a viability of 116.

Compound `COc1cc([C@@H]2c3cc4c(cc3[C@H](O)[C@H]3COC(=O)[C@H]23)OCO4)cc(OC)c1OC` displayed a viability of 115.

Consider `O=c1c(-c2ccc(O)cc2)coc2cc(O[C@@H]3O[C@H](CO)[C@@H](O)[C@H](O)[C@H]3O)ccc12`, for which the viability was found to be 135.

`Cc1csc(NC(=O)c2sc3nc4c(c(C(F)(F)F)c3c2N)CCC4)n1`: the viability is 94.1.

Take `O=C1C(CCC(O)c2ccc(F)cc2)C(c2ccc(O)cc2)N1c1ccc(F)cc1` (configuration not stated): the viability worked out at 94.9.

Compound `Cn1cnc2c(F)c(Nc3ccc(Br)cc3Cl)c(C(=O)NOCCO)cc21` gave a viability of 73.7.

On to `Cc1nccn1CC1CCc2c(c3ccccc3n2C)C1=O` (configuration not stated), for which the viability was 103.

The compound `CCc1cc(/C(C)=N/OCc2ccc(C3CCCCC3)c(C(F)(F)F)c2)ccc1CN1CC(C(=O)O)C1` registered a viability of 116.

`C=CCO/N=C(/C[C@H]1O[C@@H]2O[C@]3(C)CC[C@H]4[C@H](C)CC[C@@H]([C@H]1C)[C@@]24OO3)[C@H]1O[C@@H]2O[C@]3(C)CC[C@H]4[C@H](C)CC[C@@H]([C@H]1C)[C@@]24OO3` gave a viability of 92.1.

Compound `Cc1ccc(C(=O)c2cc(O)c(O)c([N+](=O)[O-])c2)cc1` gave a viability of 102.

Consider `COc1ccccc1OCCNCC(O)COc1cccc2[nH]c3ccccc3c12` (configuration not stated), for which the viability came out at 102.

In the case of `Cc1cc(-c2nnc3n2CCCCC3)c(C)n1-c1ccccc1`, the viability was determined as 103.

Consider `N#Cc1ccc(NC(=O)Nc2ccccc2Br)c2nn[nH]c12`, for which the viability was 129.

For `Cc1c(C)n(Cc2ccc(-c3ccccc3C(=O)O)cc2)c2ccc(C(=O)N[C@@H](C)c3ccc([N+](=O)[O-])cc3)cc12`, the viability amounted to 102.

The compound `COc1cc2c(Oc3ccc4[nH]c(C)cc4c3F)ncnc2cc1OCCCN1CCCC1` came in with a viability of 64.4.

As to `c1ccc(CNc2nc(N3CCOc4ccccc43)nc3c2CCCC3)cc1`, the viability was 131.

Take `c1ccc2c(Oc3nc(Nc4ccc(N5CCOCC5)cc4)c4ncn(C5CCCCC5)c4n3)cccc2c1`: the viability came out at 124.

Consider `OC(=O)C(CC/1=C/C(=O)NC2=CC=CC=C12)NC(=O)C3=CC=C(Cl)C=C3` (configuration not stated), for which the viability amounted to 132.

For the compound `CCC1=C2C=C(OC(=O)N3CCC(CC3)N4CCCCC4)C=CC2=NC\5=C1CN6C(=O)\C7=C(/C=C56)[C@@](O)(CC)C(=O)OC7`, the viability stood at 56.1.

In turn, `C[C@H]1COC/2=C1/C(=O)C(=O)C3=C4CCCC(C)(C)C4=CC=C23` yielded a viability of 137.

Compound `O=C(Cc1ccc(-c2ccc(OCCN3CCOCC3)cc2)cn1)NCc1ccccc1` yielded a viability of 104.

As for `C[S+](=O)([O-])OCCCCO[S+](C)(=O)[O-]`, the viability came out at 134.

The compound `CC(C)Oc1ccc(C(=O)N[C@H](CNC(=O)CN(C)C)Cc2ccc(-c3cn4cccc([C@H](C)O)c4n3)cc2)cc1Cl` displayed a viability of 98.1.

`COc1cc2nc(N3CCN(C(=O)C4COc5ccccc5O4)CC3)nc(N)c2cc1OC` (configuration not stated) gave a viability of 115.

Compound `O=C(/C=C/C=C/c1ccc2c(c1)OCO2)N1CCCCC1` returned a viability of 114.

`OC1=CC2=C(C(=C1)O)C(=O)\C=C(/O2)C3=CC=CC=C3`: the viability is 126.

Turning to `COc1cc2nc(-c3cc(F)ccc3O)nc(N[C@@H]3CNC[C@H]3C(C)(C)O)c2cc1OC`, the viability was found to be 59.9.

`CO[C@H]1C[C@H]2OC[C@@]2(OC(C)=O)[C@H]3[C@H](OC(=O)C4=CC=CC=C4)[C@]5(O)C[C@H](OC(=O)[C@H](O)[C@@H](NC(=O)OC(C)(C)C)C6=CC=CC=C6)/C(=C(/[C@@H](OC)C(=O)[C@]13C)C5(C)C)C` displayed a viability of 88.5.

`COc1ccc2nc3cc(Cl)ccc3c(Nc3cc(CN4CCCC4)c(O)c(CN4CCCC4)c3)c2n1` registered a viability of 116.

In turn, `CC(C)C[C@H](NC(=O)[C@@H](O)[C@H](N)Cc1ccccc1)C(=O)O` returned a viability of 102.

In turn, `CCc1cc2c(cc1N1CCC(N3CCOCC3)CC1)C(C)(C)c1[nH]c3cc(C#N)ccc3c1C2=O` yielded a viability of 97.8.

Take `CO/N=C(/C(=O)N[C@@H]1C(=O)N2C(C(=O)O)=C(Cn3ccc(=N)n3CCO)CS[C@H]12)c1csc(N)n1`: the viability was 109.

`COc1cc(N2CCC(N3CCN(C)CC3)CC2)ccc1Nc1ncc(Cl)c(Nc2ccccc2[S+](=O)([O-])C(C)C)n1`: the viability was determined as 73.5.

`COc1cc(N2CCC(N3CCN(C)CC3)CC2)ccc1Nc1ncnc(Nc2ccccc2[S+](=O)([O-])C(C)C)n1` registered a viability of 49.4.

On to `CC(N[C@H]1CCCC[C@@H]1NC(=O)c1ccc(Cl)cc1)c1cccc2ccccc12` (some centres not stated), for which the viability was determined as 91.2.

`COc1ccc2c(OCc3nnc4ccc(-c5ccccc5)nn34)ccnc2c1` registered a viability of 126.

Turning to `CC(C)(C)C(=O)Oc1ccc2c(c1)nc(NC(=O)c1cccc([N+](=O)[O-])c1)n2CCCO`, the viability turned out to be 106.

`COc1cc2c(cc1OC)C1CC(=O)C(CC(C)C)CN1CC2` (configuration not stated) registered a viability of 110.

On to `C=CC(=O)Nc1ccc2ncnc(Nc3ccc(OCc4cccc(F)c4)c(Cl)c3)c2c1`, for which the viability was 26.3.

Turning to `Nc1ncnc2c1ncn2[C@@H]1O[C@H](CO)[C@@H](O)[C@H]1O`, the viability stood at 132.

The compound `CC(C)C1NC(=O)C(NC(=O)C2=C3\N=C\4/C(=C(C)\C(=O)\C(=C4C(=O)NC5C(C)OC(=O)C(C(C)C)N(C)C(=O)CN(C)C(=O)C6CCCN6C(=O)C(NC5=O)C(C)C)N)OC3=C(C)C=C2)C(C)OC(=O)C(C(C)C)N(C)C(=O)CN(C)C(=O)C7CCCN7C1=O` (configuration not stated) returned a viability of 12.2.

`FC(F)(F)c1ccc(/C=C/c2nc(COc3ccc(CCCCn4ccnn4)cc3)co2)cc1` registered a viability of 98.1.

In the case of `N#C/N=C(\NCCCCCCOc1ccc(Cl)cc1)Nc1ccncc1`, the viability came out at 115.

In the case of `C[N]1C=C(C2=CC=CC=C12)\C3=C(\C(=O)NC3=O)C4=C[N](C5CCN(CC5)CC6=NC=CC=C6)C7=C4C=CC=C7`, the viability stood at 128.

For the compound `O=NN(CCCl)C(=O)NC1CCCCC1`, the viability worked out at 124.

Consider `C/C(=C\c1csc(C)n1)[C@@H]1C[C@@H]2O[C@]2(C)CCC[C@H](C)[C@H](O)[C@@H](C)C(=O)C(C)(C)[C@@H](O)CC(=O)O1`, for which the viability was found to be 102.

With `CN(C)CCN(C)CCc1ccc(Cl)c(Cl)c1`, the viability was 124.

Compound `CCNC(=O)C[C@H]1/N=C(/C2=CC=C(Cl)C=C2)C3=CC(=CC=C3[N]4C(=NN=C14)C)OC` displayed a viability of 93.5.

Compound `CC1COC2=C3N1\C=C(C(O)=O)/C(=O)C3=CC(=C2N4CCN(C)CC4)F` (configuration not stated) gave a viability of 105.

Take `CCOC(=O)Nc1ccc(NCc2ccc(F)cc2)cc1N`: the viability is 81.8.

`O=C1CCC[C@@H]2[C@H]3CCC[N+]4([O-])CCC[C@@H](CN12)[C@@H]34` (some centres not stated) had a viability of 106.

As for `CCC(=O)N[C@H]1CC[C@H](C(=O)N(C)c2ccc(-c3nc4ccccc4o3)cc2)C1`, the viability was determined as 84.8.

`Nc1nc(Cl)nc2c1ncn2[C@H]1C[C@H](O)[C@@H](CO)O1` showed a viability of 120.

Consider `OC[C@H]1O[C@@H](Oc2ccc(O)cc2)[C@H](O)[C@@H](O)[C@@H]1O`, for which the viability amounted to 99.9.

Turning to `COCCCOc1ccnc(C[S+]([O-])c2nc3ccccc3[n-]2)c1C` (configuration not stated), the viability came out at 120.

Take `CC(C)(OCc1nn(Cc2ccccc2)c2ccccc12)C(=O)O`: the viability was 113.

`c1coc(CNc2ncnc3nc[nH]c23)c1` displayed a viability of 108.

For `CN(C1CCc2c(c3ccccc3n2CC(=O)O)C1)[S+](=O)([O-])c1ccc(F)cc1` (configuration not stated), the viability is 114.

On to `CO[C@H]1C[C@@H]2CC[C@@H](C)[C@@](O)(O2)C(=O)C(=O)N2CCCC[C@H]2C(=O)O[C@H]([C@H](C)C[C@@H]2CC[C@@H](OCCO)[C@H](OC)C2)CC(=O)[C@H](C)/C=C(/C)[C@@H](O)[C@@H](OC)C(=O)[C@H](C)C[C@H](C)\C=C/C=C\C=C/1C`, for which the viability came out at 84.8.
